Converted amounts (≈) assume the structure as drawn.
Experiments:
Format in all cases: functional
Pseudomonas aeruginosa = test: Antimicrobial activity against Pseudomonas aeruginosa at 1 ug/ul after 24 hr by agar diffusion method
Bacillus cereus = test: Antimicrobial activity against Bacillus cereus at 1 ug/ul after 24 hr by agar diffusion method
Klebsiella pneumoniae = test: Antimicrobial activity against Klebsiella pneumoniae at 1 ug/ul after 24 hr by agar diffusion method
Bacillus subtilis = test: Antimicrobial activity against Bacillus subtilis at 1 ug/ul after 24 hr by agar diffusion method
[1] = Antioxidant activity assessed as DPPH scavenging activity after 20 min by spectrophotometry
Escherichia coli = test: Antimicrobial activity against Escherichia coli at 1 ug/ul after 24 hr by agar diffusion method
Staphylococcus aureus = test: Antimicrobial activity against Staphylococcus aureus at 1 ug/ul after 24 hr by agar diffusion method

Compound	IC50 [1] [µg/mL]	growth inhibition (GI) (Pseudomonas aeruginosa) [%]	growth inhibition (GI) (Bacillus cereus) [%]	growth inhibition (GI) (Klebsiella pneumoniae) [%]	growth inhibition (GI) (Bacillus subtilis) [%]	growth inhibition (GI) (Escherichia coli) [%]	growth inhibition (GI) (Staphylococcus aureus) [%]
COc1ccc(-c2oc3ccccc3c(=O)c2C)cc1	100 (≈ 376 µM)	46	68	60	46	41	66
COc1ccc2c(=O)c(C)c(-c3ccc(Cl)cc3)oc2c1	80.64 (≈ 268 µM)	28	90	87	46	28	65
Cc1c(-c2ccc([N+](=O)[O-])cc2)oc2ccccc2c1=O	131.57 (≈ 468 µM)	57	89	85	60	31	77
Cc1c(-c2ccccc2Br)oc2ccccc2c1=O	70.42 (≈ 223 µM)	42	80	78	39	34	81
COc1ccc2c(=O)c(C)c(-c3ccccc3)oc2c1	200 (≈ 751 µM)	51	50	41	63	34	59
Cc1c(-c2ccccc2)oc2ccccc2c1=O [3-METHYL-2-PHENYL-4H-CHROMEN-4-ONE]	106.38 (≈ 450 µM)	48	80	75	44	41	47
O=C1O[C@H]([C@@H](O)CO)C(O)=C1O [ASCORBIC ACID]	17.6 (≈ 99.9 µM)	–	–	–	–	–	–

More lines, main results first:

IC50 [1] [µg/mL]	Compound	growth inhibition (GI) (Pseudomonas aeruginosa) [%]	growth inhibition (GI) (Bacillus cereus) [%]	growth inhibition (GI) (Klebsiella pneumoniae) [%]	growth inhibition (GI) (Bacillus subtilis) [%]	growth inhibition (GI) (Escherichia coli) [%]	growth inhibition (GI) (Staphylococcus aureus) [%]
104 (≈ 412 µM)	Cc1c(-c2ccc(O)cc2)oc2ccccc2c1=O	37	81	80	56	47	74
98.04 (≈ 362 µM)	Cc1c(-c2ccc(Cl)cc2)oc2ccccc2c1=O	47	85	81	68	33	74
113.64 (≈ 447 µM)	Cc1c(-c2ccc(F)cc2)oc2ccccc2c1=O	48	75	70	81	31	73
111.11 (≈ 353 µM)	Cc1c(-c2ccc(Br)cc2)oc2ccccc2c1=O	51	62	72	82	27	58

— ChEMBL document CHEMBL3045363, “Synthesis of 3-methylflavones and their antioxidant and antibacterial activities” (Med Chem Res, 2012)
